Data on 10 molecules can be found in patent US20180000085A1, “USE OF PICOLINAMIDE COMPOUNDS WITH FUNGICIDAL ACTIVITY” (DOW AGROSCIENCES LLC, priority 2014, published 2018).

The subject of one assay is Zymoseptoria tritici. Put plainly: Leaf blotch of wheat (SEPTTR) disease control on wheat seedlings. It is filed as in vivo. Further details: key to SEPTTR 1DP, HV activity at 100 ppm (% control rating) / SEPTTR 3DC, HV activity at 100 ppm (% control rating) / SEPTTR disease control, 1DP / SEPTTR disease control, 3DC / SEPTTR 1DP disease control rating, HV activity / SEPTTR 3DC disease control rating, HV activity / SEPTTR 3DC, LV activity at 125.1 g/H (% Control rating) / SEPTTR 1DP, LV activity at 125.1 g/H (% Control rating) / SEPTTR 1DP disease control rating, LV activity at 125.1 g/H / SEPTTR 3DC disease control rating, LV activity at 125.1 g/H / SEPTTR 3DC disease control rating, HV activity at 100 ppm / SEPTTR 1DP disease control rating, HV activity at 100 ppm / HV activity at 100 ppm SEPTTR 3DC (disease control rating) / HV activity at 100 ppm SEPTTR 1DP (disease control rating) / LV activity at 125.1 g/H SEPTTR 1DP (disease control rating) / LV activity at 125.1 g/H SEPTTR 3DC (disease control rating): A: > 80; B: ≤ 80; C: Not Tested; D: No Activity Observed in the Reported Assay. To be noted: for LV activity at 125.1 g/H SEPTTR 1DP (disease control rating) / LV activity at 125.1 g/H SEPTTR 3DC (disease control rating) / SEPTTR 1DP, LV activity at 125.1 g/H (% Control rating) / SEPTTR 3DC, LV activity at 125.1 g/H (% Control rating) / SEPTTR 1DP disease control rating, LV activity at 125.1 g/H / SEPTTR 3DC disease control rating, LV activity at 125.1 g/H: low volume application; for SEPTTR 1DP disease control rating, LV activity at 125.1 g/H / SEPTTR 1DP disease control rating, HV activity at 100 ppm: 1 day protectant; for SEPTTR 3DC disease control rating, LV activity at 125.1 g/H / SEPTTR 3DC disease control rating, HV activity at 100 ppm: 3 day curative; for SEPTTR 1DP disease control rating, HV activity at 100 ppm / SEPTTR 3DC disease control rating, HV activity at 100 ppm: high volume application.

The next assay relates to Puccinia triticina. Description: Wheat brown rust (PUCCRT) disease control on wheat seedlings. Also on record: key to PUCCRT 3DC, HV activity at 100 ppm (% control rating) / PUCCRT disease control, 3DC / PUCCRT 1DP disease control rating, HV activity / PUCCRT 3DC disease control rating, HV activity / PUCCRT 3DC, LV activity at 125.1 g/H (% Control rating) / PUCCRT 1DP, LV activity at 125.1 g/H (% Control rating) / PUCCRT 3DC disease control rating, LV activity at 125.1 g/H / PUCCRT 1DP disease control rating, LV activity at 125.1 g/H / PUCCRT 3DC disease control rating, HV activity at 100 ppm / PUCCRT 1DP disease control rating, HV activity at 100 ppm / HV activity at 100 ppm PUCCRT 3DC (disease control rating) / LV activity at 125.1 g/H PUCCRT 1DP (disease control rating) / LV activity at 125.1 g/H PUCCRT 3DC (disease control rating): A: > 80; B: ≤ 80; C: Not Tested; D: No Activity Observed in the Reported Assay. It is filed as in vivo. To be noted: for LV activity at 125.1 g/H PUCCRT 1DP (disease control rating) / LV activity at 125.1 g/H PUCCRT 3DC (disease control rating) / PUCCRT 1DP, LV activity at 125.1 g/H (% Control rating) / PUCCRT 3DC, LV activity at 125.1 g/H (% Control rating) / PUCCRT 1DP disease control rating, LV activity at 125.1 g/H / PUCCRT 3DC disease control rating, LV activity at 125.1 g/H: low volume application; for PUCCRT 1DP disease control rating, LV activity at 125.1 g/H / PUCCRT 1DP disease control rating, HV activity at 100 ppm: 1 day protectant; for PUCCRT 3DC disease control rating, LV activity at 125.1 g/H / PUCCRT 3DC disease control rating, HV activity at 100 ppm: 3 day curative; for PUCCRT 1DP disease control rating, HV activity at 100 ppm / PUCCRT 3DC disease control rating, HV activity at 100 ppm: high volume application.

Where [1] appears, read: 1 Day Protectant, wheat leaf blotch.
Setting [2] is: 3 Day Curative, wheat leaf blotch.
The mark [3] stands for this setting: 1 Day Protectant, wheat brown rust.
Where [4] appears, read: 3 Day Curative, wheat brown rust.

As to `C=CC[C@@H](Oc1ccc(C(F)(F)F)cc1)[C@H](C)OC(=O)[C@H](C)NC(=O)c1nccc(OC)c1OC(C)=O` [Cmpd 1084], the “LV activity at 125.1 g/H SEPTTR 1DP (disease control rating)” value (“LV activity at 125.1 g/H SEPTTR 1DP” for short) in the assay with Zymoseptoria tritici (setting [1]) was “B (≤ 80)”. Also, in the assay with Zymoseptoria tritici (setting [2]), the “LV activity at 125.1 g/H SEPTTR 3DC (disease control rating)” value (from here on “LV activity at 125.1 g/H SEPTTR 3DC”) is on record as “B (≤ 80)”. Moreover, the “LV activity at 125.1 g/H PUCCRT 1DP (disease control rating)” value (from here on “LV activity at 125.1 g/H PUCCRT 1DP”) with Puccinia triticina (setting [3]) is “B (≤ 80)”. In addition, the “LV activity at 125.1 g/H PUCCRT 3DC (disease control rating)” value (from here on “LV activity at 125.1 g/H PUCCRT 3DC”) in the assay on Puccinia triticina (setting [4]) is “D”.
Take `CCCC(OC(=O)C(C)NC(=O)c1nccc(OC)c1OCOC(C)=O)C(Oc1ccccc1)C(C)C` (stereo not shown) [Cmpd 1093]: the “LV activity at 125.1 g/H SEPTTR 1DP” value in the assay on Zymoseptoria tritici (setting [1]) is on record as “D”. In the assay with Zymoseptoria tritici (setting [2]), the “LV activity at 125.1 g/H SEPTTR 3DC” value is given as “D”. Further, in the assay with Puccinia triticina (setting [3]), the “LV activity at 125.1 g/H PUCCRT 1DP” value is reported as “D”. Further, in the assay with Puccinia triticina (setting [4]), the “LV activity at 125.1 g/H PUCCRT 3DC” value is given as “D”.
Consider `CCC(CC)[C@@H](Oc1ccc(Cl)cc1)[C@H](C)OC(=O)[C@@H](NC(=O)c1nccc(OC)c1OCOC(C)=O)C(C)C` [Cmpd 648], for which, in the assay on Zymoseptoria tritici (1 Day Protectant), the “SEPTTR 1DP, LV activity at 125.1 g/H (% Control rating)” value is “B (≤ 80)”. The “SEPTTR 3DC, LV activity at 125.1 g/H (% Control rating)” value with Zymoseptoria tritici (3 Day Curative) is on record as “A (> 80)”. The “PUCCRT 1DP, LV activity at 125.1 g/H (% Control rating)” value in the assay on Puccinia triticina (1 Day Protectant) is “A (> 80)”. Further, the “PUCCRT 3DC, LV activity at 125.1 g/H (% Control rating)” value in the assay on Puccinia triticina (3 Day Curative) is given as “B (≤ 80)”.
As for `COc1ccnc(C(=O)N[C@@H](C)C(=O)O[C@@H](C)[C@H](OCC2CC2)C2CCCCC2)c1OCOC(C)=O` [Cmpd 881], in the assay with Zymoseptoria tritici, the “SEPTTR 1DP disease control rating, LV activity at 125.1 g/H” value is listed as “B (≤ 80)” and the “SEPTTR 3DC disease control rating, LV activity at 125.1 g/H” value is “B (≤ 80)”. In addition, in the assay on Puccinia triticina, the “PUCCRT 1DP disease control rating, LV activity at 125.1 g/H” value is on record as “A (> 80)” and the “PUCCRT 3DC disease control rating, LV activity at 125.1 g/H” value is listed as “A (> 80)”.
On to `COc1ccnc(C(=O)N[C@@H](C)C(=O)O[C@@H](C)[C@H](Oc2cccc(Cl)c2)C2CC2)c1O` [Cmpd 1009], for which, in the assay on Zymoseptoria tritici, the “SEPTTR 1DP disease control rating, HV activity at 100 ppm” value was “A (> 80)” and the “SEPTTR 3DC disease control rating, HV activity at 100 ppm” value is recorded as “A (> 80)”. Also, in the assay on Puccinia triticina, the “PUCCRT 1DP disease control rating, HV activity at 100 ppm” value is recorded as “A (> 80)” and the “PUCCRT 3DC disease control rating, HV activity at 100 ppm” value is given as “A (> 80)”.
For the molecule `CCC(CC)C(Oc1cc(F)cc(Cl)c1)C(C)OC(=O)C(CC(C)C)NC(=O)c1nccc(OC)c1OCOC(C)=O` (stereo not shown) [Cmpd 683], in the assay with Zymoseptoria tritici, the “SEPTTR 1DP disease control rating, LV activity at 125.1 g/H” value is listed as “D” and the “SEPTTR 3DC disease control rating, LV activity at 125.1 g/H” value is “B (≤ 80)”. In addition, in the assay with Puccinia triticina, the “PUCCRT 1DP disease control rating, LV activity at 125.1 g/H” value is “D” and the “PUCCRT 3DC disease control rating, LV activity at 125.1 g/H” value is “D”.
With `CCOc1ccnc(C(=O)N[C@@H](C)C(=O)O[C@@H](C)[C@@H](CC(C)C)Oc2cccc(Cl)c2)c1OC(C)=O` [Cmpd 1109], the “LV activity at 125.1 g/H SEPTTR 1DP” value in the assay on Zymoseptoria tritici (setting [1]) is listed as “D”. Moreover, the “LV activity at 125.1 g/H SEPTTR 3DC” value in the assay with Zymoseptoria tritici (setting [2]) is given as “B (≤ 80)”. Further, the “LV activity at 125.1 g/H PUCCRT 1DP” value in the assay with Puccinia triticina (setting [3]) was “B (≤ 80)”. Further, the “LV activity at 125.1 g/H PUCCRT 3DC” value in the assay on Puccinia triticina (setting [4]) is reported as “B (≤ 80)”.
`COc1ccnc(C(=O)N[C@@H](CC(C)C)C(=O)O[C@@H](C)[C@H](Oc2ccc(Cl)cc2Cl)C(C)C)c1OCOC(C)=O` [Cmpd 565]: in the assay on Zymoseptoria tritici (1 Day Protectant), the “SEPTTR 1DP, LV activity at 125.1 g/H (% Control rating)” value is given as “D”. Also, in the assay on Zymoseptoria tritici (3 Day Curative), the “SEPTTR 3DC, LV activity at 125.1 g/H (% Control rating)” value is reported as “B (≤ 80)”. In addition, the “PUCCRT 1DP, LV activity at 125.1 g/H (% Control rating)” value in the assay with Puccinia triticina (1 Day Protectant) is reported as “B (≤ 80)”. Further, the “PUCCRT 3DC, LV activity at 125.1 g/H (% Control rating)” value with Puccinia triticina (3 Day Curative) is “B (≤ 80)”.
Consider `CCCOC(c1ccccc1)C(C)OC(=O)C(C)NC(=O)c1nccc(OC)c1O` (stereo not shown) [Cmpd 821], for which, in the assay with Zymoseptoria tritici, the “SEPTTR 1DP disease control rating, HV activity at 100 ppm” value is “B (≤ 80)” and the “SEPTTR 3DC disease control rating, HV activity at 100 ppm” value was “B (≤ 80)”. In the assay with Puccinia triticina, the “PUCCRT 1DP disease control rating, HV activity at 100 ppm” value is reported as “A (> 80)” and the “PUCCRT 3DC disease control rating, HV activity at 100 ppm” value was “A (> 80)”.
For `CCCOC(CC)C(Oc1ccccc1)C(C)OC(=O)C(C)(C)NC(=O)c1nccc(OC)c1O` (stereo not shown) [Cmpd 417], the “SEPTTR 1DP disease control rating, HV activity” value with Zymoseptoria tritici (HV application at 100 ppm, 1 Day Protectant, wheat leaf blotch) is reported as “D”. For the same molecule, the “SEPTTR 3DC disease control rating, HV activity” value in the assay on Zymoseptoria tritici (HV application at 100 ppm, 3 Day Curative, wheat leaf blotch) is “B (≤ 80)”. In addition, the “PUCCRT 1DP disease control rating, HV activity” value in the assay with Puccinia triticina (HV application at 100 ppm, 1 Day Protectant, wheat brown rust) is recorded as “D”. Besides, the “PUCCRT 3DC disease control rating, HV activity” value in the assay with Puccinia triticina (HV application at 100 ppm, 3 Day Curative, wheat brown rust) is on record as “D”.
